Source: patent publication US12060349B2, “Glucosylceramide synthase inhibitors” (Genzyme Corporation, priority 2012, dated 2024)
Read-outs that look alike come from different tables or passages of the source.

What was measured:
B16 mouse melanoma cells = assay: cell viability in the B16 cell-based assay (Viability, B16 IC50); conditions: Mus musculus
Procedure, shortened: (§1)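 Viability readouts were run alongside the GM3 cell-surface assay in the same B16 and C32 cultures. A figure above 10 indicates no cell death.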

[1] = target: T1, glucosylceramide synthase (Homo sapiens, UniProt Q16739); assay: microsomal assay measuring conversion of ceramide to glucosylceramide by HPLC (GCS IC50); format: biochemical; conditions: concentration causing 50% inhibition of glucosylceramide synthase activity
T1 construct: Microsomes were isolated from A375 human melanoma cells; endogenous in cells; host or cells: A375 human melanoma cells (microsomal fraction, 100,000 g pellet)
T1 sequence (Q16739 1-394): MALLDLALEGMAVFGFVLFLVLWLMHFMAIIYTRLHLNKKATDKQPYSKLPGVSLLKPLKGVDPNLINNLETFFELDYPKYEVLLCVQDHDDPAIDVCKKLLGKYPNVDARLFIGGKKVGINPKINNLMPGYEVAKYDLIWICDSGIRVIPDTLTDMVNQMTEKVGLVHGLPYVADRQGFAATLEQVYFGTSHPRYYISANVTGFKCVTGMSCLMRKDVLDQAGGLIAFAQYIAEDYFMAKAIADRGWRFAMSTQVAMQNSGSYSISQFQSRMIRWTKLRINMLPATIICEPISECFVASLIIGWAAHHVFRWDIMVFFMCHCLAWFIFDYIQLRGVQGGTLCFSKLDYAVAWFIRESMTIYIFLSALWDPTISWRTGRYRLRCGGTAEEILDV
Procedure, shortened: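 IC50 is the compound concentration halving glucosylceramide synthase activity. Activity was measured in microsomes, with HPLC quantifying glucosylceramide formed from ceramide.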

[2] = tested on: GM3 expression on the cell surface, C32 human melanoma cells; assay: cell based phenotypic assay, cell surface GM3 by antibody mediated immunofluorescence, C32 (GM3 C32 IC50); conditions: Homo sapiens, 50% inhibition of GM3 expression on the cell surface
Procedure, shortened: (§2)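 Two melanoma lines, mouse B16 and human C32, were treated and surface GM3 quantified by antibody immunofluorescence for IC50. A parallel viability readout gives the concentration killing 50% of cells, with values over 10 indicating no cell death.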

[3] = tested on: GM3 expression on the cell surface, B16 mouse melanoma cells; assay: cell based phenotypic assay, cell surface GM3 by antibody mediated immunofluorescence, B16 (GM3 B16 IC50); conditions: Mus musculus, 50% inhibition of GM3 expression on the cell surface
Procedure, shortened: as §2

C32 human melanoma cells = assay: cell viability in the C32 cell-based assay (Viability, C32 IC50); conditions: Homo sapiens, concentration causing 50% cell death, values greater than 10 represent a lack of cell death
Procedure, shortened: as §1

[4] = B16, B16 cells, concentration causing 50% cell death, values greater than 10 represent a lack of cell death, read-out: Viability, B16 IC50
[5] = C32 human melanoma cells, read-out: GM3 C32 IC50
[6] = B16 mouse melanoma cells, read-out: GM3 B16 IC50
[7] = C32, C32 cells, read-out: Viability, C32 IC50
[8] = B16, read-out: Viability, B16 IC50
[9] = read-out: GM3 C32 IC50, C32 human melanoma cells
[10] = read-out: GM3 B16 IC50, B16 mouse melanoma cells
[11] = C32, read-out: Viability, C32 IC50, C32 cells

IC50 [1] [nM] | IC50 [2, 5] [nM] | IC50 [3, 6] [nM] | Compound | IC50 (B16 mouse melanoma cells; [4]) [nM] | IC50 (C32 human melanoma cells; [7]) [nM] | IC50 (B16 mouse melanoma cells; [8]) [nM] | IC50 [2, 9] [nM] | IC50 [3, 10] [nM] | IC50 (C32 human melanoma cells; [11]) [nM]
7.69 | 0.861 | 100 | CCC1CN(C(=O)NC2(C)CCN3CCC2CC3)CCN1c1nccc(-c2ccccc2)n1 (stereo not drawn) [Example 142, 3-Ethyl-N-(4-methyl-1-azabicyclo[3.2.2]nonan-4-yl)-4-(4-phenylpyrimidin-2-yl)piperazine-1-carboxamide] | 5340 | 9210 |  |  |  | 
67.3 | 6.33 | 529 | COCC1CN(C(=O)NC2(C)CCN3CCC2CC3)CCN1c1nccc(-c2ccccc2)n1 (stereo not drawn) [Example 144, 3-(Methoxymethyl)-N-(4-methyl-1-azabicyclo[3.2.2]nonan-4-yl)-4-(4-phenylpyrimidin-2-yl)piperazine-1-carboxamide] | ≥ 10000 | 1000 |  |  |  | 
8.01 | 0.507 | 76.3 | CC1CN(C(=O)NC2(C)CCN3CCC2CC3)CCN1c1nccc(-c2ccc(F)cc2)n1 (stereo not drawn) [Example 145, 4-(4-(4-Fluorophenyl)pyrimidin-2-yl)-3-methyl-N-(4-methyl-1-azabicyclo[3.2.2]nonan-4-yl)piperazine-1-carboxamide] | 6980 | 316 |  |  |  | 
17.4 | 8.59 | 390 | COCc1ccc(-c2nc(N3CCN(C(=O)NC4(C)CCN5CCC4CC5)CC3C(C)C)ncc2F)cc1 (stereo not drawn) [Example 148, 4-(5-Fluoro-4-(4-(methoxymethyl)phenyl)pyrimidin-2-yl)-3-isopropyl-N-(4-methyl-1-azabicyclo[3.2.2]nonan-4-yl)piperazine-1-carboxamide] | 3460 | 1000 |  |  |  | 
10.9 | 1.5 | 279 | COCc1ccc(-c2ccnc(N3CCN(C(=O)NC4(C)CCN5CCC4CC5)CC3C(F)(F)F)n2)cc1 (stereo not drawn) [Example 149, 4-(4-(4-(Methoxymethyl)phenyl)pyrimidin-2-yl)-N-(4-methyl-1-azabicyclo[3.2.2]nonan-4-yl)-3-(trifluoromethyl)piperazine-1-carboxamide] | 4310 | 1000 |  |  |  | 
23 | 1.06 | 195 | COCc1ccc(-c2ccnc(N3CCN(C(=O)NC4(C)CCN5CCC4CC5)CC3C(F)F)n2)cc1 (stereo not drawn) [Example 150, 3-(Difluoromethyl)-4-(4-(4-(methoxymethyl)phenyl)pyrimidin-2-yl)-N-(4-methyl-1-azabicyclo[3.2.2]nonan-4-yl)piperazine-1-carboxamide] | 5440 | 1000 |  |  |  | 
324 | 95.6 | 1820 | COCc1ccc(-c2ncnc(N3CCN(C(=O)NC4(C)CCN5CCC4CC5)CC3C(C)C)n2)cc1 (stereo not drawn) [Example 151, 3-Isopropyl-4-(4-(4-(methoxymethyl)phenyl)-1,3,5-triazin-2-yl)-N-(4-methyl-1-azabicyclo[3.2.2]nonan-4-yl)piperazine-1-carboxamide] | 9840 | 1000 |  |  |  | 
2.88 | 0.439 | 76.3 | C[C@@H]1CN(C(=O)NC2(C)CCN3CCC2CC3)CCN1c1ncc(Oc2ccc(F)cc2)cn1 (stereo partly drawn) [Example 152, (3R)-4-(5-(4-Fluorophenoxy)pyrimidin-2-yl)-3-methyl-N-(4-methyl-1-azabicyclo[3.2.2]nonan-4-yl)piperazine-1-carboxamide] | 6770 | 316 |  |  |  | 
53.4 | 11.7 | 2640 | C#CC1CN(C(=O)NC2(C)CCN3CCC2CC3)CCN1c1nccc(-c2ccc(COC)cc2)n1 (stereo not drawn) [Example 153, 3-Ethynyl-4-(4-(4-(methoxymethyl)phenyl)pyrimidin-2-yl)-N-(4-methyl-1-azabicyclo[3.2.2]nonan-4-yl)piperazine-1-carboxamide] | ≥ 10000 | 1000 |  |  |  | 
57 | 16.5 | 1930 | CC1CN(C(=O)OC2CCN3CCC2CC3)CCN1c1nccc(-c2ccccc2)n1 (stereo not drawn) [Example 154, 1-Azabicyclo[3.2.2]nonan-4-yl 3-methyl-4-(4-phenylpyrimidin-2-yl)piperazine-1-carboxylate] | 2840 | 1000 |  |  |  | 
3.91 | 0.544 | 1.9 | COCCOc1ccc(-c2ccc(C(C)(C)NC(=O)NC3(C)CCN4CCC3CC4)cc2)cc1 (stereo not drawn) [Example 160, 1-(2-(4′-(2-Methoxyethoxy)-[1,1′-biphenyl]-4-yl)propan-2-yl)-3-(4-methyl-1-azabicyclo[3.2.2]nonan-4-yl)urea] | 1000 | 1000 |  |  |  | 
250 | 32.7 | 311 | COCCOc1ccc(-c2ccc(C(C)(C)NC(=O)N3CCN4CCC3CC4)cc2)cc1 [Example 161, N-(2-(4′-(2-Methoxyethoxy)-[1,1′-biphenyl]-4-yl)propan-2-yl)-1,4-diazabicyclo[3.2.2]nonane-4-carboxamide] | 3160 | 3160 |  |  |  | 
4.15 | 0.24 | 0.516 | COCCOc1ccc(-c2ccc(C3(NC(=O)NC4(C)CCN5CCC4CC5)CC3)cc2)cc1 (stereo not drawn) [Example 165, 1-(1-(4′-(2-Methoxyethoxy)-[1,1′-biphenyl]-4-yl)cyclopropyl)-3-(4-methyl-1-azabicyclo[3.2.2]nonan-4-yl)urea] | 316 | 31.6 |  |  |  | 

Compound | IC50 [1] [nM] | IC50 [2, 5] [nM] | IC50 [3, 6] [nM] | IC50 (B16 mouse melanoma cells; [4]) [nM] | IC50 (C32 human melanoma cells; [7]) [nM] | IC50 (B16 mouse melanoma cells; [8]) [nM] | IC50 [2, 9] [nM] | IC50 [3, 10] [nM] | IC50 (C32 human melanoma cells; [11]) [nM]
COCCOc1ccc(-c2ccc(C(C)(C)NC(=O)OC3CN4CCC3CC4)cc2)cc1 (stereo not drawn) [Example 155, Quinuclidin-3-yl (2-(4′-(2-methoxyethoxy)-[1,1′-biphenyl]-4-yl)propan-2-yl)carbamate] | 3.48 |  |  |  |  | 1000 | 0.657 | 38.6 | 215
COCCOc1ccc(-c2ccc(C(C)(C)NC(=O)N[C@@]3(C)CN4CCC3CC4)cc2)cc1 [Example 157, (R)-1-(2-(4′-(2-Methoxyethoxy)-[1,1′-biphenyl]-4-yl)propan-2-yl)-3-(3-methylquinuclidin-3-yl)urea] | 228 | 42 | 538 | 3160 | 3160 |  |  |  | 
COCCOc1ccc(-c2ccc(C(C)(C)NC(=O)N[C@]3(C)CN4CCC3CC4)cc2)cc1 [Example 158, (S)-1-(2-(4′-(2-Methoxyethoxy)-[1,1′-biphenyl]-4-yl)propan-2-yl)-3-(3-methylquinuclidin-3-yl)urea] | 2.85 | 0.529 | 7.62 | 631 | 631 |  |  |  | 
CCC1(NC(=O)NC(C)(C)c2ccc(-c3ccc(OCCOC)cc3)cc2)CN2CCC1CC2 (stereo not drawn) [Example 159, 1-(3-Ethylquinuclidin-3-yl)-3-(2-(4′-(2-methoxyethoxy)-[1,1′-biphenyl]-4-yl)propan-2-yl)urea] | 5.6 | 0.636 | 4.46 | 1000 | 1000 |  |  |  | 
COCCOc1ccc(-c2ccc(C3(NC(=O)NC4CN5CCC4CC5)CC3)cc2)cc1 (stereo not drawn) [Example 162, 1-(1-(4′-(2-Methoxyethoxy)-[1,1′-biphenyl]-4-yl)cyclopropyl)-3-(quinuclidin-3-yl)urea] | 28.1 | 2.21 | 72.7 | 3540 | 1000 |  |  |  | 
COCCOc1ccc(-c2ccc(C3(NC(=O)NC4(C)CN5CCC4CC5)CC3)cc2)cc1 (stereo not drawn) [Example 163, 1-(1-(4′-(2-Methoxyethoxy)-[1,1′-biphenyl]-4-yl)cyclopropyl)-3-(3-methylquinuclidin-3-yl)urea] | 8.49 | 0.539 | 6.57 | 1000 | 173 |  |  |  | 
CCC1(NC(=O)NC2(c3ccc(-c4ccc(OCCOC)cc4)cc3)CC2)CN2CCC1CC2 (stereo not drawn) [Example 164, 1-(3-Ethylquinuclidin-3-yl)-3-(1-(4′-(2-methoxyethoxy)-[1,1′-biphenyl]-4-yl)cyclopropyl)urea] | 6.16 | 0.205 | 2.51 | 1000 | 173 |  |  |  | 
COCCOc1ccc(-c2ccc(C3(NC(=O)OC4CN5CCC4CC5)CC3)cc2)cc1 (stereo not drawn) [Example 166, Quinuclidin-3-yl (1-(4′-(2-methoxyethoxy)-[1,1′-biphenyl]-4-yl)cyclopropyl)carbamate] | 5.69 |  |  |  |  | 316 | 1.81 | 21.9 | 215
